From patent publication US20020025347A1, “Treatment of diabetic nephropathy and microalbuminuria” (Shiva Biomedical, LLC, priority 1999, published 2002)
Entries after “also recorded” stand apart in the source; their conditions may differ. Where a name gives a salt, the structure may show the parent alone.

Tests used:
[1] = tested on: STZ-induced diabetic rats; assay: Treatment of STZ-induced diabetic rats with a salt of lithospermic acid; format: in vivo, Sprague-Dawley rats
Experimental: Sprague-Dawley rats (3-4 months of age, 250-300 g) were housed individually in sterile microisolator cages in a Specific Pathogen Free animal care facility. Rats were fed standard Rat chow and water was available ad libitum. Animals were maintained in temperature (25° C.) and humidity (40%) controlled rooms with a 12-h light/12 h dark cycle. Rats were randomly assigned to three experimental groups: Group I, nondiabetic control (n=10), Group II, untreated diabetic (n=10); and Group III, salt of lithospermic acid-treated diabetic (n=10). Insulin dependent diabetes was induced by a single intravenous injection of freshly prepared streptozotocin (STZ) (50 mg/kg in 0.1 M citrate buffer, pH 4.5) (Schmidt, R. E., et al., Diabetes 45(3):284-290 (1996)). A rat was considered diabetic when the nonfasting plasma glucose level was greater than about 17 mmol/L, 3 days following injection of STZ. Eight weeks following the administration of STZ, animals were treated with a salt of lithospermic acid by intramuscularly injections once daily (20 mg salt of lithospermic acid/kg body weight) for 8 weeks. Body weights were recorded weekly before and throughout the treatment period. Twenty-four hour urine and glycosylated hemoglobin levels were determined at 8, 12 and 16 weeks after injection of STZ. Urine samples were centrifuged (3000 rpm for 10 min) and the supernatant analyzed for creatinine and protein levels using standard techniques (Matsuo, Y., et al., Pharmacology 50:1-8 (1995)).

protein kinase C (PKC) = assay: High glucose-induced protein kinase C activity in mesangial cells; format: cell-based, Murine; settings: MES-13 cells, 30 mM glucose 5 days, then 25 or 50 μg/mL for 24 hours
Experimental: Murine renal mesangial cells were used in these experiments. The mesangial cells (MES-13) were cloned from transgenic mice. The twenty-fifth passage of the originally plated cells was used in the experiments. MES-13 cells were grown in Dulbecco's Modified Eagle's Medium (DMEM) containing 15% fetal bovine serum (FBS), 1% streptomycin-penicillin mixture, fungizone 0.2 μg/mL, 44 mM NaHCO3 and 14 mM HEPES at 37° C. in a humid atmosphere containing 5% CO2 and 95% air. Subcultures were seeded from confluent stock cultures by trypsinization in Hanks balanced salt solution containing 0.5 mM EDTA and 0.025% trypsin and grown in DMEM containing 15% FBS for 24 hr to near confluence (80%). Near confluent cells were incubated with serum-free DMEM to arrest cell growth and synchronize cell cultures. After 24 hr, the media was changed to serum-free DMEM containing 5.5 mM (normal) or 30 mM (high) glucose and cells cultured for 5 days. […] The amount of PKC in lysates of cells cultured in presence of high glucose (30 mM) and normal glucose (control, 5.5 mM) was determined using a commercially available kit (Upstate Biotechnology, Lake Placid N.Y.). […] Assay squares were placed into vials and radioactivity determined by scintillation counting. PKC activity was expressed as pmol/min/protein. Significant differences between group means were determined using the unpaired or paired Student's t-test.

TGF-β1 = assay: High glucose-induced TGF-β1 secretion from mesangial cells (Western blot); format: cell-based, Murine; settings: MES-13 cells, 30 mM glucose, 25 or 50 μg/mL for 24 hours
Experimental: (§1) Murine renal mesangial cells were used in these experiments. The mesangial cells (MES-13) were cloned from transgenic mice. The twenty-fifth passage of the originally plated cells was used in the experiments. MES-13 cells were grown in Dulbecco's Modified Eagle's Medium (DMEM) containing 15% fetal bovine serum (FBS), 1% streptomycin-penicillin mixture, fungizone 0.2 μg/mL, 44 mM NaHCO3 and 14 mM HEPES at 37° C. in a humid atmosphere containing 5% CO2 and 95% air. Subcultures were seeded from confluent stock cultures by trypsinization in Hanks balanced salt solution containing 0.5 mM EDTA and 0.025% trypsin and grown in DMEM containing 15% FBS for 24 hr to near confluence (80%). Near confluent cells were incubated with serum-free DMEM to arrest cell growth and synchronize cell cultures. After 24 hr, the media was changed to serum-free DMEM containing 5.5 mM (normal) or 30 mM (high) glucose and cells cultured for 5 days. Cells were then incubated with a salt of lithospermic acid at 25 μg/mL or 50 μg/mL for 24 hours. […] Protein concentration in cell lysate and culture media samples was determined by the method of Lowry with BSA as a standard (Lowry, O. H., et al., J. Biol. Chem. 193:265-275 (1951)). […] After washing, the antigen-antibody complexes were detected by enhanced chemiluminesence (Amersham International, England) and quantitated densitometry.

fibronectin = assay: High glucose-induced fibronectin synthesis and secretion from mesangial cells (Western blot); format: cell-based, Murine; settings: MES-13 cells, 30 mM glucose, 50 μg/mL
Experimental: as §1

ERK2 = assay: High glucose-induced phosphorylation of ERK in mesangial cells (Western blot); format: cell-based, Murine; settings: MES-13 cells, 30 mM glucose, 50 μg/mL
Experimental: as §1

MEK2 = assay: High glucose-induced phosphorylation of MEK in mesangial cells (Western blot); format: cell-based, Murine; settings: MES-13 cells
Experimental: as §1

[2] = treated diabetic rats, 20 mg/kg intramuscularly once daily for 8 weeks

Compound: O=C(/C=C/c1ccc(O)c2c1[C@H](C(=O)O)[C@@H](c1ccc(O)c(O)c1)O2)O[C@H](Cc1ccc(O)c(O)c1)C(=O)O [salt of lithospermic acid]
- effect on blood glucose levels in diabetic rats ([1]; 20 mg/kg intramuscularly once daily for 8 weeks): did not significantly lower blood glucose levels
- urinary protein levels (FIG. 1) ([1]; 20 mg/kg intramuscularly once daily for 8 weeks, started 8 weeks after STZ, compared to untreated diabetic and nondiabetic control rats): significantly (p<0.001) lowered urinary protein levels; also recorded: approached the levels observed in control, nondiabetic rats
- HCT ([1]; treated diabetic rats): 37.44 ± 3.13%
- Hb ([1]; treated diabetic rats): 14.44 ± 0.87 g/dL
- MCH ([1]; treated diabetic rats): 21.13 ± 0.69 pg
- WBC ([1]; treated diabetic rats): 11.95 ± 4.66 × 10(3)
- Albumin [1, 2]: 1.75 ± 0.31 g/dL
- BUN [1, 2]: 28.1 ± 5.32 mg/dL
- Bilirubin [1, 2]: 1.14 ± 1.10 mg/dL
- Cholesterol [1, 2]: 47 ± 7.35 mg/dL
- Cl [1, 2]: 101.5 ± 2.65 mmol/L
- Creatinine [1, 2]: 0.6 ± 0.12 mg/dL
- D. Bil [1, 2]: 0.67 ± 0.7 mg/dL
- GOT [1, 2]: 239 ± 157 U/L
- GPT [1, 2]: 102.75 ± 73.74 U/L
- Glucose [1, 2]: 508.5 ± 160.4 mg/dL
- K [1, 2]: 19.53 ± 12.8 mmol/L
- Na [1, 2]: 130.3 ± 6.24 mmol/L
- Serum Protein [1, 2]: 6.28 ± 0.54 g/dL
- Uric Acid [1, 2]: 1.6 ± 1.07 mg/dL
- r-GTP [1, 2]: 2.75 ± 2.75 U/L
- HbAlc ([1]; treated diabetic rats, p < 0.01 vs. control): 8.59 ± 1.59 %
- PKC activity in high glucose (FIG. 2) (protein kinase C (PKC)): decreased PKC activity
- TGF-β1 secretion in high glucose (FIG. 3) (TGF-β1): decreased high glucose-induced TGF-β1 secretion
- fibronectin levels in high glucose (FIG. 4) (fibronectin): decreased fibronectin levels to about that of control levels
- phosphorylated ERK2 in high glucose (FIG. 5) (ERK2): decrease in phosphorylated ERK2 to about control levels
- phosphorylated MEK2 (MEK P) in high glucose (FIG. 7) (MEK2; high glucose, 50 μg/mL): approached control levels
- total amount of MEK2 (MEK2-T, phosphorylated and nonphosphorylated) (FIG. 8) (MEK2; regardless of glucose concentration or treatment): remained constant
